Laboratory results: PubChem BioAssay (NCI)
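GI50 marks 50% less growth. TGI: concentration producing complete growth inhibition.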

How the values were obtained:
Assay in all cases: NCI-60 cell line screen, 384-well format; in the data active = GI50 below about 0.43 µM; inactive = the rest
HOP-62 NSCLC = system: HOP-62 NSCLC
SNB-75 CNS = system: SNB-75 CNS
NCI-H460 NSCLC = system: NCI-H460 NSCLC
IGROV1 ovarian = system: IGROV1 ovarian
ACHN renal = system: ACHN renal
RXF 393 renal = system: RXF 393 renal
MDA-MB-435 melanoma = system: MDA-MB-435 melanoma
OVCAR-8 ovarian = system: OVCAR-8 ovarian
SF-539 CNS = system: SF-539 CNS
CAKI-1 renal = system: CAKI-1 renal
HCC-2998 colon = system: HCC-2998 colon
HCT-15 colon = system: HCT-15 colon
U251 glioblastoma = system: U251 glioblastoma
RPMI-8226 leukemia = system: RPMI-8226 leukemia
SF-268 CNS = system: SF-268 CNS
OVCAR-4 ovarian = system: OVCAR-4 ovarian
HOP-92 NSCLC = system: HOP-92 NSCLC
NCI-H23 lung = system: NCI-H23 lung
OVCAR-5 ovarian = system: OVCAR-5 ovarian
SK-OV-3 ovarian = system: SK-OV-3 ovarian
KM12 colon = system: KM12 colon
K-562 leukemia = system: K-562 leukemia
NCI-H522 lung = system: NCI-H522 lung
UO-31 renal = system: UO-31 renal
T-47D breast = system: T-47D breast
UACC-257 melanoma = system: UACC-257 melanoma
DU-145 prostate = system: DU-145 prostate
MALME-3M melanoma = system: MALME-3M melanoma
NCI/ADR-RES ovarian = system: NCI/ADR-RES ovarian
NCI-H322M lung = system: NCI-H322M lung
SK-MEL-28 melanoma = system: SK-MEL-28 melanoma
SK-MEL-5 melanoma = system: SK-MEL-5 melanoma
SW-620 colon = system: SW-620 colon
M14 melanoma = system: M14 melanoma
SNB-19 CNS = system: SNB-19 CNS
HCT-116 colon = system: HCT-116 colon
MOLT-4 leukemia = system: MOLT-4 leukemia
OVCAR-3 ovarian = system: OVCAR-3 ovarian
BT-549 breast = system: BT-549 breast
CCRF-CEM leukemia = system: CCRF-CEM leukemia
HT29 colon = system: HT29 colon
SR leukemia = system: SR leukemia
PC-3 prostate = system: PC-3 prostate
HS 578T breast = system: HS 578T breast
SF-295 CNS = system: SF-295 CNS
MDA-MB-468 breast = system: MDA-MB-468 breast
SN12C renal = system: SN12C renal
HL-60(TB) leukemia = system: HL-60(TB) leukemia
NCI-H226 lung = system: NCI-H226 lung
MDA-MB-231 breast = system: MDA-MB-231 breast
TK-10 renal = system: TK-10 renal
LOX IMVI melanoma = system: LOX IMVI melanoma
A498 renal = system: A498 renal
MCF7 breast = system: MCF7 breast
EKVX NSCLC = system: EKVX NSCLC
COLO 205 colon = system: COLO 205 colon
A549 NSCLC = system: A549 NSCLC
786-0 renal = system: 786-0 renal

O=C(NC[C@H](O)CO)c1ccncc1Nc1ccc(I)cc1F
10.9 µM: TGI (IGROV1 ovarian)
0.0114 µM: TGI (HL-60(TB) leukemia)
0.0319 µM: TGI (UACC-257 melanoma)
18.8 µM: TGI (A549 NSCLC)
1.73 µM: TGI (NCI-H23 lung)
39 µM: TGI (TK-10 renal)
1.72 µM: TGI (LOX IMVI melanoma)
inactive: GI50 (SNB-75 CNS) 8.92 µM | GI50 (NCI-H460 NSCLC) 1.55 µM | GI50 (ACHN renal) 13.8 µM | GI50 (RXF 393 renal) 2.03 µM | GI50 (OVCAR-8 ovarian) 27 µM | GI50 (SF-539 CNS) 2.9 µM | GI50 (CAKI-1 renal) 0.433 µM | GI50 (HCT-15 colon) 3.19 µM | GI50 (U251 glioblastoma) 1.67 µM | GI50 (RPMI-8226 leukemia) 7.66 µM | GI50 (SF-268 CNS) > 100 µM | GI50 (OVCAR-4 ovarian) 21.5 µM | GI50 (HOP-92 NSCLC) 0.484 µM | GI50 (SK-OV-3 ovarian) 23.1 µM | GI50 (NCI-H522 lung) 13.6 µM | GI50 (T-47D breast) 26.1 µM | GI50 (DU-145 prostate) 8.45 µM | GI50 (NCI/ADR-RES ovarian) 22.3 µM | GI50 (NCI-H322M lung) 0.498 µM | GI50 (SNB-19 CNS) 13.2 µM | GI50 (MOLT-4 leukemia) 12.3 µM | GI50 (OVCAR-3 ovarian) 14 µM | GI50 (BT-549 breast) 15 µM | GI50 (CCRF-CEM leukemia) 34.5 µM | GI50 (SR leukemia) 1.33 µM | GI50 (PC-3 prostate) > 100 µM | GI50 (HS 578T breast) 16 µM | GI50 (SF-295 CNS) 30.6 µM | GI50 (MDA-MB-468 breast) 14.8 µM | GI50 (SN12C renal) 4.09 µM | GI50 (NCI-H226 lung) 0.614 µM | GI50 (MDA-MB-231 breast) 0.449 µM | GI50 (TK-10 renal) 2.24 µM | GI50 (A498 renal) 2.63 µM | GI50 (MCF7 breast) 18.9 µM | GI50 (EKVX NSCLC) 8.37 µM | GI50 ([…]-0 renal) 19.6 µM
0.171 µM: TGI (COLO 205 colon)
3.62 µM: TGI (HOP-92 NSCLC)
0.217 µM: TGI (HCC-2998 colon)
68 µM: TGI (SNB-75 CNS)
13.9 µM: TGI (SK-MEL-5 melanoma)
11.5 µM: TGI (UO-31 renal)
34.5 µM: TGI (A498 renal)
active: GI50 (HOP-62 NSCLC) 0.25 µM | GI50 (IGROV1 ovarian) 0.0849 µM | GI50 (MDA-MB-435 melanoma) 0.0134 µM | GI50 (HCC-2998 colon) 0.0278 µM | GI50 (NCI-H23 lung) 0.0413 µM | GI50 (OVCAR-5 ovarian) 0.0476 µM | GI50 (KM12 colon) 0.0953 µM | GI50 (K-562 leukemia) 0.423 µM | GI50 (UO-31 renal) 0.354 µM | GI50 (UACC-257 melanoma) < 0.01 µM | GI50 (MALME-3M melanoma) < 0.01 µM | GI50 (SK-MEL-28 melanoma) < 0.01 µM | GI50 (SK-MEL-5 melanoma) 0.0331 µM | GI50 (SW-620 colon) < 0.01 µM | GI50 (M14 melanoma) < 0.01 µM | GI50 (HCT-116 colon) 0.0614 µM | GI50 (HT29 colon) 0.0156 µM | GI50 (HL-60(TB) leukemia) < 0.01 µM | GI50 (LOX IMVI melanoma) 0.0887 µM | GI50 (COLO 205 colon) < 0.01 µM | GI50 (A549 NSCLC) 0.3 µM
0.0136 µM: TGI (SK-MEL-28 melanoma)
1.45 µM: TGI (HCT-116 colon)
36.2 µM: TGI (MDA-MB-468 breast)
15.9 µM: TGI (SR leukemia)
25.2 µM: TGI (MOLT-4 leukemia)
25 µM: TGI (SF-539 CNS)
17.4 µM: TGI (RXF 393 renal)
24.4 µM: TGI (MDA-MB-231 breast)
0.0235 µM: TGI (M14 melanoma)
47.4 µM: TGI (NCI-H226 lung)
47.3 µM: TGI (RPMI-8226 leukemia)
> 100 µM: TGI (HOP-62 NSCLC) | TGI (NCI-H460 NSCLC) | TGI (ACHN renal) | TGI (MDA-MB-435 melanoma) | TGI (OVCAR-8 ovarian) | TGI (CAKI-1 renal) | TGI (HCT-15 colon) | TGI (U251 glioblastoma) | TGI (SF-268 CNS) | TGI (OVCAR-4 ovarian) | TGI (OVCAR-5 ovarian) | TGI (SK-OV-3 ovarian) | TGI (KM12 colon) | TGI (K-562 leukemia) | TGI (NCI-H522 lung) | TGI (T-47D breast) | TGI (DU-145 prostate) | TGI (NCI/ADR-RES ovarian) | TGI (NCI-H322M lung) | TGI (SW-620 colon) | TGI (SNB-19 CNS) | TGI (OVCAR-3 ovarian) | TGI (BT-549 breast) | TGI (CCRF-CEM leukemia) | TGI (HT29 colon) | TGI (PC-3 prostate) | TGI (HS 578T breast) | TGI (SF-295 CNS) | TGI (SN12C renal) | TGI (MCF7 breast) | TGI (EKVX NSCLC) | TGI (786-0 renal)
